According to patent US7635722B1, “Chemical induced intracellular hyperthermia” (priority 1998, dated 2009):
Where two headings read alike, the source gives them in different places.

Legend:
[1] = assay type: in vivo, human
Experimental: Placement of physiologic monitoring sensors, intravenous fluids, supplemental oxygen (4 l/min) and optional oral diazepam sedation (5-10 mg) is initiated prior to treatment. Patients receive 0.85 to 1.0 liter of intravenous (IV) 5% dextrose in 0.25 normal saline per hour alternated with 5% dextrose in 0.5 normal saline plus 7.5 to 10 meq of KCl per liter to insure a urinary output of no less than 1 ml/kg/hr. […] Two hours after treatment and 48 hours post-treatment, serum chemistries and hematologic profiles are repeated. A typical patient flow chart is depicted in FIG. 14.
Pretreatment protocol: the patient was given 10 mg diazepam by mouth and dressed into a modified wet suit. The wet suit was cut lengthwise at the arms and legs. Velcro strappings were attached at the cuttings for closure, rapid removal or exposure of the limb(s). After placement of monitoring sensors, they were started on IV fluids of 5% dextrose, 0.5 normal saline with 7 meq K^+, infused at an initial rate of 12 cc/kg/hr. Evaporative heat loss from the head was minimized by a plastic shower cap and towels. A 401AC temperature probe (YSI Incorporated, Yellow Springs, Ohio) was inserted 11 cm. into the rectum. […] A TEEM 100 Metabolic Analysis System (AeroSport Inc., Ann Arbor, Mich.), with a modified face mask and oxygen delivery system (38-40% 02 saturation) for patient comfort and increased accuracy, was attached to the patient. Oxygen consumption (V02), carbon dioxide production (VC02), expired air volume (VE), heart rate (HR), and Kcal of heat produced were measured in 20 second intervals and extrapolated to minute or hourly rates.
Pretreatment protocol: all medications were stopped 2 weeks prior to treatment. The patient refused taking diazepam, placement of a Foley catheter and oxygen face mask. They dressed themself into a dry cold water immersion suit (Stearns, ISS-590I, Universal Adult) designed to prevent heat loss and modified for easy placement of physiologic monitors. Equipment for measurement of heart rate, temperature, carbon dioxide production and Kcal of heat produced were conducted as outlined in Example 1. An oral breathing tube was used to measure V02 from room air. Urine output was measured when the patient voluntarily urinated through a “Texas” catheter (superficial condom tightly fitted around the head of the penis with tubing connected to urine collection bag). The patient was informed that hyperthermia would be administered as tolerated by their stamina and monitored clinical parameters, not to exceed 5 hours, on a daily or every other day basis, for a total of 5 sessions.
Pretreatment protocol: the evening prior treatment the patient was instructed not to eat and dress in cotton undergarments. Approximately 4 hours prior to treatment 2 mg alprazolam was administered by mouth. The patient dressed themself into a dry cold water immersion suit (Stearns, previously described) with headgear. Monitoring sensors, including EKG display, IV fluids and Foley catheter were attached and the suit was zipped closed. The patient opted for oxygen supplementation. The modified face mask was connected to the TEEM 100 metabolic Analysis System for V02 measurements. Data was recorded as previously described.
Pretreatment protocol: the patient was transfused with three units of packed red blood cells. A Foley catheter was inserted on each day of treatment. They were covered in a water soaked blanket containing a polyethylene lining. A shower cap with towels was used to prevent heat loss from the head. Intravenous lines were placed into both arms with 19 gauge intracaths. EKG, heart rate, rectal thermistor, and V02 monitors were attached. Oxygen supplemented facemask and equipment was attached and data monitored as previously described under Example 1.
Pretreatment protocol: the patient was transfused with 2 units of packed red blood cells 48 hours prior to undergoing treatment. Intravenous fluids (Lactated Ringer's solution) were administered at a rate of 100 cc/hour. […]

[2] = cited from earlier work
hepatocyte = settings: in less than 6 minutes after the hormonal action of glucagon; cited from earlier work
hepatitis C virus = assay: DNP with interferon-alpha, chronic hepatitis C (Example 10); assay type: in vivo, human; settings: patient history

For CNC(C)(C)Cc1ccccc1.CNC(C)(C)Cc1ccccc1.O=S(=O)(O)O [Mephenteramine sulfate], the heart rate ([1]; Example 4, ten minutes after 30 mg intramuscular, before DNP) was 96 and the V02 ([1]; Example 4, ten minutes after 30 mg intramuscular, before DNP, from 250) was 320 cc/min.
NC[C@H](O)c1ccc(O)c(O)c1 [Norepinephrine bitartrate (Levophed), Norepinephrine bitartrate] gave a heart rate ([1]; Example 2, about 1 minute after vasopressor IV drip 1 microgram/min on DNP, from 90) of 100, a V02 ([1]; Example 2, about 1 minute after vasopressor IV drip on DNP) of 0.85 L/min and a core body temperature ([1]; Example 2, within 20 minutes of vasopressor on DNP) of 41.5 °C.
For Oc1ccc(CCCCNC[C@H](O)c2ccc(O)c(O)c2)cc1 [arbutamine], the half-life ([2]; in vivo) is given as 10 min.
In the case of NCCc1ccc(O)c(O)c1 [dopamine], the V02 ([1]; human, in vivo) is reported as 680-710 cc/min.
In the case of CN(C)c1ccc2nc3ccc(=[N+](C)C)cc-3sc2c1 [methylene blue], the VO2 ([1]; Example 9, after methylene blue 2 mg/kg infusion, on DNP 3 mg/kg) is reported as 450-500 cc/minute.
In the case of NC(=O)CC[C@@H]1NC(=O)[C@H](Cc2ccccc2)NC(=O)[C@H](Cc2ccc(O)cc2)NC(=O)[C@@H](N)CSSC[C@@H](C(=O)N2CCC[C@H]2C(=O)N[C@@H](CCCN=C(N)N)C(=O)NCC(N)=O)NC(=O)[C@H](CC(N)=O)NC1=O [vasopressin], the half-life ([2]; in vivo) is given as 5 min.
In the case of glucagon, the half-life ([2]; in plasma) is given as 9 min and the “stimulation of hepatocyte uncoupled V02” value (hepatocyte) is given as “up to 100%”.
For interferon alpha-2b, the HCV-RNA (hepatitis C virus; after 6 months of interferon alpha-2b with ribavirin, before relapse) was “undetectable” and the hemoglobin concentration (hepatitis C virus; after 12 weeks of interferon alpha-2b with ribavirin, anemia) was 9.2 g/deciliter.
